In ChEMBL document CHEMBL4813951 (Eur J Med Chem, 2021):

Columns and labels:
Histamine H1 receptor = Histamine H1 receptor (Homo sapiens, UniProt P35367); assay: Displacement of [3H]mepyramine from human histamine H1 receptor expressed in sf9 insect cell membranes co-expressing RGS4 incubated for 60 mins by microbeta scintillation counting method; design: species or system Membrane
Histamine H2 receptor [1] = molecular target: T1, Histamine H2 receptor (Homo sapiens, UniProt P25021); assay: Displacement of [3H]UR-DE257 from human histamine H2 receptor expressed in sf9 insect cell membranes co-expressing GSalphaS incubated for 60 mins by microbeta scintillation counting method; design: species or system Membrane
Histamine H3 receptor = Histamine H3 receptor (Homo sapiens, UniProt Q9Y5N1); assay: Displacement of [3H]UR-P129 from human histamine H3 receptor expressed in sf9 insect cell membranes co-expressing Galphai2/Gbeta1gamma2 incubated for 60 mins by microbeta scintillation counting method; design: species or system Membrane
Histamine H2 receptor [2] = molecular target: T1, Histamine H2 receptor; assay: Agonist activity at human histamine receptor expressed in sf9 insect cell membranes co-exprssing GsalphaS incubated for 90 mins [35S]GTPgammaS binding based microbeta scintillation counting analysis; type: functional, Membrane
Histamine H2 receptor [3] = molecular target: T1, Histamine H2 receptor; assay: Agonist activity at human histamine H2 receptor expressed in HEK293T cells co-expressing ELucC by beta arrestin2 recruitment assay; type: functional, cell-based
Histamine H2 receptor [4] = molecular target: T1, Histamine H2 receptor; assay: Agonist activity at human histamine H2 receptor expressed in sf9 insect cell membranes co-exprssing GsalphaS assessed as intrinsic activity at >=30 uM incubated for 90 mins [35S]GTPgammaS binding based microbeta scintillation counting analysis relative to histamine; type: functional; conditions: Membrane, filed as agonist, dose microM >=30, time 90.0 min
Histamine H4 receptor = Histamine H4 receptor (Homo sapiens, UniProt Q9H3N8)
Histamine H2 receptor [5] = molecular target: Histamine H2 receptor (Cavia porcellus, UniProt P47747); assay: Agonist activity at guinea pig right atrium histamine H2 receptor assessed as increase in heart rate incubated for 30 mins in presence of cimetidine; type: functional, tissue-based, Right cardiac atrium
[6] = molecular target: Histamine H2 receptor (Cavia porcellus) (UniProt P47747); assay: Agonist activity at guinea pig right atrium histamine H2 receptor assessed as intrinsic activity incubated for 30 mins in presence of cimetidine relative to histamine; type: functional, tissue-based; conditions: Right cardiac atrium, filed as agonist
D(2) dopamine receptor [7] = molecular target: T2, D(2) dopamine receptor (Homo sapiens, UniProt P14416); assay: Displacement of [3H]N-methylspiperone from human D2L receptor expressed in HEK293T cells co-expressing CRE-Luc incubated for 60 mins by microbeta scintillation counting method; type: cell-based
D(3) dopamine receptor [8] = molecular target: T3, D(3) dopamine receptor (Homo sapiens, UniProt P35462); assay: Displacement of [3H]N-methylspiperone from human D3 receptor expressed in HEK293T cells co-expressing CRE-Luc incubated for 60 mins by microbeta scintillation counting method; type: cell-based
D(2) dopamine receptor [9] = molecular target: T2, D(2) dopamine receptor; type: functional, cell-based, HEK293T
D(3) dopamine receptor [10] = molecular target: T3, D(3) dopamine receptor; assay: Agonist activity at […] expressed in HEK293T cells co-expressing ELucC by beta arrestin2 recruitment assay; type: functional, cell-based

Histamine H4 receptor, sequence (Q9H3N8 whole entry): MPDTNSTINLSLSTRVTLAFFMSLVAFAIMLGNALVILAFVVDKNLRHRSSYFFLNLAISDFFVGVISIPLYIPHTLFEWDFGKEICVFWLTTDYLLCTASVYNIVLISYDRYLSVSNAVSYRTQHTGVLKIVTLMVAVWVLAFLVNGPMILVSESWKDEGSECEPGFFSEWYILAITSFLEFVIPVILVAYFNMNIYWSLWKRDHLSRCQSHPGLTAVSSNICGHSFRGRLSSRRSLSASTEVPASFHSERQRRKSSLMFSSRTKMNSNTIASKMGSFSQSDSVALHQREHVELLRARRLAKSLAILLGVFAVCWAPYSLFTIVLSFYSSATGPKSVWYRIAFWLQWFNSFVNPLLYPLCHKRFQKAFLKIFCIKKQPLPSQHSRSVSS
T3 sequence (P35462 whole entry): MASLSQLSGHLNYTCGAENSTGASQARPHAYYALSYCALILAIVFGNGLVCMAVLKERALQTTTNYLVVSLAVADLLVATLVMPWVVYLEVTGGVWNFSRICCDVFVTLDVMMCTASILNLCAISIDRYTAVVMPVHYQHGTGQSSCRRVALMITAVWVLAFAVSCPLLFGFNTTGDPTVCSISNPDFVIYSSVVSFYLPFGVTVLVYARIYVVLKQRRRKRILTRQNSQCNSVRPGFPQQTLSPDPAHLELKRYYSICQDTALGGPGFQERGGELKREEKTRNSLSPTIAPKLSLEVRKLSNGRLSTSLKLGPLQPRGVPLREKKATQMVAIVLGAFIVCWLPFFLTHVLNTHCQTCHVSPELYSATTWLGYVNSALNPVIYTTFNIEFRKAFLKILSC
T2 sequence (P14416 whole entry): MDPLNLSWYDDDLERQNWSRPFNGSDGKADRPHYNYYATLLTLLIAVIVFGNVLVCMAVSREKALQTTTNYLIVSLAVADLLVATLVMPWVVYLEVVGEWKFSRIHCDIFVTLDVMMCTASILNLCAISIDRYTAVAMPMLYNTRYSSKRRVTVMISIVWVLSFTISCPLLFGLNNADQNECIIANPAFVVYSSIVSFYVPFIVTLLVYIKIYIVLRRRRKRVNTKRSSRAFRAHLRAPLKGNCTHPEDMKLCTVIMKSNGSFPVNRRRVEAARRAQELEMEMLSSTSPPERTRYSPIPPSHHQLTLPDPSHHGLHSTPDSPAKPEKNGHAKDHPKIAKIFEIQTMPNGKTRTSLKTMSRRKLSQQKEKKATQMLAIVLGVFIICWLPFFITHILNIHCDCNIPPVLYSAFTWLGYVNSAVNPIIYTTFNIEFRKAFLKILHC
Histamine H1 receptor, sequence (P35367 whole entry): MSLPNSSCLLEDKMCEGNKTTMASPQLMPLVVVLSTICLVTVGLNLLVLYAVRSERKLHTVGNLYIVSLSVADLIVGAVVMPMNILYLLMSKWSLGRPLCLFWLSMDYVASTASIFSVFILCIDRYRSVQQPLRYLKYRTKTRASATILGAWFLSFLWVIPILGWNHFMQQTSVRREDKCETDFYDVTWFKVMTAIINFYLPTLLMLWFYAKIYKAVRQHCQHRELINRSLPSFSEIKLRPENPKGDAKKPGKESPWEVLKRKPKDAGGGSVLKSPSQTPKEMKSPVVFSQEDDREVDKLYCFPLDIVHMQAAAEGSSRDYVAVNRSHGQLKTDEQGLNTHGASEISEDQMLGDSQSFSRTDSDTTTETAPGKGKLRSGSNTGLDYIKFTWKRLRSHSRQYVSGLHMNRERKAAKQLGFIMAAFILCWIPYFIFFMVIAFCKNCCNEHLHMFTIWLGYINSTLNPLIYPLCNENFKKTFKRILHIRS
Histamine H3 receptor, sequence (Q9Y5N1 whole entry): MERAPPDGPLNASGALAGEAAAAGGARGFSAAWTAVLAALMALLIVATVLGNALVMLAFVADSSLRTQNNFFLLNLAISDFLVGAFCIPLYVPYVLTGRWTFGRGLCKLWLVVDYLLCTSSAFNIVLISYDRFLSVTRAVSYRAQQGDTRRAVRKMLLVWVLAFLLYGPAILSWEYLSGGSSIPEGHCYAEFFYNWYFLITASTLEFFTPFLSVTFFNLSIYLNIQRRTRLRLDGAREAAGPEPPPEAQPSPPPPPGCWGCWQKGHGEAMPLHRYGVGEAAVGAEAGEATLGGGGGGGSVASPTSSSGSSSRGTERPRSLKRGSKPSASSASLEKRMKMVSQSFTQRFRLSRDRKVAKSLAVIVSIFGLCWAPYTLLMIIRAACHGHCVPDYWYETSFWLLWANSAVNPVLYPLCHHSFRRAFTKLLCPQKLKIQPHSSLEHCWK
T1 sequence (P25021 whole entry): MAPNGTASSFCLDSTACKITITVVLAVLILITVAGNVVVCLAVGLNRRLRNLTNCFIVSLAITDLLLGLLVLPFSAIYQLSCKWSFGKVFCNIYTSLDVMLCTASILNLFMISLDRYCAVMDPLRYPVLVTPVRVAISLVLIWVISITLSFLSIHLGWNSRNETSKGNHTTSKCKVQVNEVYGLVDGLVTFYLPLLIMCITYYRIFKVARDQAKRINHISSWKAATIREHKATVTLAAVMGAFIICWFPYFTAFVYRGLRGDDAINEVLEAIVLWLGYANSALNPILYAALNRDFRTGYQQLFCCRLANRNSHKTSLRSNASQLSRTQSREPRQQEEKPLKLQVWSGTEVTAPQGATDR
Histamine H2 receptor (Cavia porcellus), sequence (P47747 whole entry): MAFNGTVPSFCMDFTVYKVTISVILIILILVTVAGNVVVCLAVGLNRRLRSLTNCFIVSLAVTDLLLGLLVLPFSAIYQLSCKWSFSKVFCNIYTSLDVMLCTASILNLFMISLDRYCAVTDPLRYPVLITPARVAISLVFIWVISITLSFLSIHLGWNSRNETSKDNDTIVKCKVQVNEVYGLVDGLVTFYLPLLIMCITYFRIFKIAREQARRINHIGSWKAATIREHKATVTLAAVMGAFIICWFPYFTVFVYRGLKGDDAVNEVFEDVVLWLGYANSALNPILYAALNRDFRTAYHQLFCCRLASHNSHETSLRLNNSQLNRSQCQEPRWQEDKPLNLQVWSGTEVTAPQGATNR
Histamine H2 receptor (Cavia porcellus, UniProt P47747), sequence (P47747 whole entry): as above

Compound | Ki (Histamine H1 receptor) | Ki (Histamine H2 receptor [1]) | Ki (Histamine H3 receptor) | EC50 (Histamine H2 receptor [2]) | EC50 (Histamine H2 receptor [3]) | Intrinsic activity (Histamine H2 receptor [4]) | Ki (Histamine H4 receptor) | EC50 (Histamine H2 receptor [5]) | Intrinsic activity [6] | Ki (D(2) dopamine receptor [7]) | Ki (D(3) dopamine receptor [8]) | EC50 (D(2) dopamine receptor [9]) | EC50 (D(3) dopamine receptor [10])
CCCNC(=O)/N=C(\N)NCCCc1sc(N)nc1C | 28800 nM | 105 nM | 44700 nM | 178 nM | 170 nM | 0.79 | 87100 nM |  |  |  |  |  | 
Cc1nc(N)sc1CCCN/C(N)=N/C(=O)NC[C@H](C)c1ccccc1 | 8710 nM | 100 nM | 17000 nM |  |  |  | 12000 nM | 25.7 nM | 0.99 |  |  |  | 
Cc1nc(N)sc1CCCN/C(N)=N/C(=O)NCC(C)CCCc1ccccc1 (centres undefined) | 7080 nM | 60.3 nM | 2290 nM |  | 2510 nM |  | 776 nM |  |  |  |  |  | 
COc1ccc(C(C)NC(=O)/N=C(\N)NCCCc2sc(N)nc2C)cc1 (centres undefined) | 5890 nM | 37.2 nM | 33100 nM |  |  |  | 20000 nM | 38 nM | 0.91 |  |  |  | 
Cc1ccc(C(C)NC(=O)/N=C(\N)NCCCc2sc(N)nc2C)cc1 (centres undefined) | 5130 nM | 30.9 nM | 26300 nM |  |  |  | 11200 nM | 22.4 nM | 0.85 |  |  |  | 
Cc1nc(N)sc1CCCN/C(N)=N/C(=O)NC(C)c1ccc(Br)cc1 (centres undefined) | 2880 nM | 30.2 nM | 12900 nM |  |  |  | 8130 nM | 55 nM | 0.87 |  |  |  | 
Cc1nc(N)sc1CCCN/C(N)=N/C(=O)NC1CCCCC1 | 24500 nM | 170 nM |  | 148 nM | 389 nM |  | 31600 nM |  |  |  |  |  | 
CCCCCCNC(=O)/N=C(\N)NC1CCc2nc(N)sc2C1 (centres undefined) | 1950 nM | 1120 nM | 1510 nM | 148 nM |  | 0.16 | 16600 nM |  |  | 1260 nM | 1260 nM |  | 
Cc1nc(N)sc1CCCN/C(N)=N/C(=O)NCc1ccccc1 | 6170 nM | 69.2 nM | 19500 nM | 28.8 nM | 100 nM | 0.91 | 19100 nM |  |  | 603 nM | 45.7 nM | 1660 nM | 33.9 nM
Cc1nc(N)sc1CCCN/C(N)=N/C(=O)NC[C@@H](C)c1ccccc1 | 9550 nM | 102 nM | 26900 nM |  |  |  | 13500 nM | 12.9 nM | 0.98 |  |  |  | 
Cc1ccc(CC(C)CNC(=O)/N=C(\N)NCCCc2sc(N)nc2C)cc1 (centres undefined) | 1660 nM | 72.4 nM | 3240 nM | 60.3 nM | 132 nM |  | 3630 nM |  |  |  |  |  | 
Cc1nc(N)sc1CCCN/C(N)=N/C(=O)NC(C)c1ccco1 (centres undefined) | 45700 nM | 31.6 nM | 43700 nM |  | 234 nM |  | 45700 nM | 9.77 nM | 1 | 1700 nM | 17.4 nM | 1070 nM | 102 nM
CCC(NC(=O)/N=C(\N)NCCCc1sc(N)nc1C)c1ccccc1 (centres undefined) | 12600 nM | 63.1 nM | 21900 nM |  |  |  | 11200 nM | 10.7 nM | 0.93 |  |  |  | 
N/C(=N\C(=O)NCCc1ccccc1)Nc1cccc(-c2csc(N)n2)c1 |  |  |  |  |  |  | 30200 nM |  |  |  |  |  | 
Cc1nc(N)sc1CCCN/C(N)=N/C(=O)Nc1ccccc1 |  | 3160 nM |  | 525 nM | 3390 nM | 0.59 | 22400 nM |  |  |  |  |  | 
CCCN[C@@H]1CCc2nc(N)sc2C1 [DEXPRAMIPEXOLE] |  | 13800 nM |  | 8510 nM | 39800 nM |  |  |  |  |  |  |  | 
Cc1nc(N)sc1CCCN/C(N)=N/C(=O)NCC(C)CC1CCCCC1 (centres undefined) | 3800 nM | 70.8 nM | 7410 nM | 17.4 nM | 302 nM |  | 3720 nM |  |  |  | 132 nM |  | 302 nM
Cc1nc(N)sc1CCCN/C(N)=N/C(=O)NC(c1ccccc1)c1ccccc1 | 15800 nM |  | 9120 nM |  |  |  | 6310 nM | 39.8 nM |  |  |  |  | 
CCCCCNC(=O)/N=C(\N)NCCCc1sc(N)nc1C | 10700 nM | 4.47 nM | 10500 nM |  | 178 nM |  | 4270 nM | 5.75 nM |  | 447 nM |  | 1050 nM | 
Cc1nc(N)sc1CCCN/C(N)=N/C(=S)NC[C@H](C)c1ccccc1 | 63100 nM | 1150 nM | 69200 nM |  |  |  | 44700 nM | 490 nM | 0.44 |  |  |  | 
